Measured values: PubChem BioAssay (NCI)
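Growth conditions: 96-well plates. Treatment: test compound, 48 hours, 5 concentrations. Analysis: linear interpolation between bracketing concentrations; unreached endpoints set to highest concentration. The concentration for 50% growth inhibition is given as GI50. TGI is the concentration that stops growth completely.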

Key:
Experiment in all cases: NCI tumour cell line growth inhibition, 48 h
[1] = tested on: TK-10 renal
[2] = tested on: UO-31 renal
[3] = tested on: HCT-15 colon
[4] = tested on: NCI-H226 lung
[5] = tested on: HT29 colon
[6] = tested on: SW-620 colon
[7] = tested on: M14 melanoma
[8] = tested on: SF-268 CNS
[9] = tested on: KM12 colon
[10] = tested on: SNB-75 CNS

SMILES	TGI [1] [µM]	TGI [2] [µM]	TGI [3] [µM]	TGI [4] [µM]	TGI [5] [µM]	TGI [6] [µM]	TGI [7] [µM]	TGI [8] [µM]	TGI [9] [µM]	TGI [10] [µM]	GI50 [1] [µM]	GI50 [2] [µM]	GI50 [3] [µM]	GI50 [10] [µM]	GI50 [4] [µM]	GI50 [6] [µM]	GI50 [7] [µM]	GI50 [8] [µM]	GI50 [9] [µM]	GI50 [5] [µM]
O=C1/C=C(/c2ccc(O)cc2)[C@H](O)Cc2ccc(OC3OC(CO)C(O)C(O)C3O)cc2O1 (some centres not stated) (tested in a mixture with another compound)	> 100	> 100	> 100	> 100	> 100	> 100	> 100	> 100	> 100											
COc1ccc2c(c1)C(CCN)C(=O)N2 (configuration not stated)	> 100		> 100		> 100	> 100	> 100	> 100	> 100	> 100										
Cc1cc(C)c(-c2noc(-c3ccc(Cl)cc3)c2C2=NCCN2)c(C)c1		46.9	57.4	68.3	34.2	> 100	27	37.4	54	37.3										
COc1ccc(C2CC(c3cccc(Nc4ccnc5cc(Cl)ccc45)c3)=NN2c2ccccc2)cc1 (configuration not stated)	97.2	21.6	14.7	63.8		14.4	15.4	> 100	19.6	49.1	3.76	0.478	0.335	3.34	11.3	0.277	0.331	4.19	0.226	
N#CC1=C(N)NC(=S)NC1c1ccc(-c2ccc(-c3nc4ccccc4s3)cc2)o1 (configuration not stated)	> 50	> 50	> 50			> 50	> 50	> 50	> 50		37.9	> 50	17.5			37.5	20.8	28.9	17	
C=C1c2c(C)nn(-c3ccccc3)c2N(C)C23C[C@@H]1C1(C)c4c(C)nn(-c5ccccc5)c4N(C)C(C)(C[C@H]12)C3 (some centres not stated)	24.5		> 100	> 100	> 100			> 100			4.77		3.67		15.3			7.52		3.59
S=c1sc2ccccc2n1CN1CCN(Cc2ccccc2)CC1		> 100	> 100	> 100	> 100	> 100	> 100	> 100	> 100	> 100										
COc1ncn(C2C=C(CO)C(O)C2O)c(=O)n1 (configuration not stated)	> 100	> 100	> 100	> 100			> 100	> 100	> 100	> 100										
COc1ccccc1NC(=O)CC(=O)NNCC(=O)Nc1nc(-c2ccccc2)cs1	> 100			> 100	> 100	> 100	> 100	> 100	> 100	> 100										
Nc1nc(Cl)cc2c1ncn2C1OC(CO)C(O)C1O (configuration not stated)	> 100	> 100	> 100		> 100	> 100	> 100	> 100	> 100	> 100	> 100	> 100	> 100	> 100		> 100	> 100	> 100	> 100	> 100
Cc1ccc(NC(=O)C(=O)C2C(=O)C3=C(CC2(C)C)NC2C=CC=CC2S3)c(C)c1 (configuration not stated)	> 100	> 100	> 100	> 100	> 100	> 100		> 100	> 100	> 100										
Oc1ccc(Br)cc1CN1CCN(Cc2ccc(Cl)cc2)CC1	> 100	> 100	51.3	> 100	62.5	92.5		> 100	> 100	> 100	24.8	9.5	16.1	27.6	20.8	22.2		31.5	26.3	23.2
O=c1c2ccccc2oc2nccnc12	> 100	> 100	> 100		> 100	> 100	> 100	> 100	> 100	> 100										
COC(=O)C1=C(O)C(C(=O)OC)[C@@]2(O)[C@@H](C(=O)OC)C(c3ccc(OC(=O)C(Cc4ccccc4)NC(C)=O)cc3)C[C@@H]1[C@@H]2C(=O)OC (some centres not stated)	44.1	> 100	28.4	75.1	33.6	> 100	47.2	88.3	41.3		18.5	35.7	13.3		25.5	29.7	20.7	21.9	15.3	15.6
COc1cc2c(cc1OC)[C@@H]1[C@H](C2=O)c2ccc([N+](=O)[O-])cc2C(=O)N1CCCBr	41.1		9.27	1.24		> 100	0.0139	> 39.4	4.6	12.5	1.28		0.369	0.611	0.281	0.213	< 0.01		0.406	0.35
CC(C)CCC[C@@H](C)C1CCC2[C@@H]3CC=C4C[C@@H](OC(=O)CCC(=O)NCC[N+](C)(C)CCCS(=O)(=O)[O-])CC[C@]4(C)C3CC[C@@]21C (some centres not stated)		> 100	29.5	50.5	80.3	33.8	36	39.7	37.9	44.9										
CC(=O)OCC1OC(n2c(-c3ccc(N)cc3)cc(-c3ccco3)c(C#N)c2=O)C(OC(C)=O)C(OC(C)=O)C1OC(C)=O (configuration not stated)	> 50	> 50	> 50		> 50	> 50	> 50	> 50	> 50	> 50										
COC(=O)C1=C(SC)SC2(C(=O)OC)C3C=C(C)C4C(N13)C42C(=O)OC (configuration not stated)	> 100	> 100	> 100	> 100	> 100	> 100	> 100	> 100		> 100										
Clc1cc(Cl)c2n[se]nc2c1	> 100	> 100	> 100		> 100	> 100	> 100	> 100	> 100	> 100										
